23 molecules from US7202239B2, “Cyclohexylphenyl carboxamides tocolytic oxytocin receptor antagonists” (Wyeth, priority 2001, dated 2007) can be followed below.

The target in this test is human V2 vasopressin receptor subtype (Homo sapiens, UniProt P30518). Kind of test: Vasopressin binding in CHO cell membranes expressing human vasopressin V2 subtype receptors. Particulars: [3H]arginine vasopressin; for inhibition at 0.1 µM / V2 % inhibition at 100 nM: 100 nM; for IC50: value in parentheses. From the text: Vasopressin Binding in Chinese Hamster Ovary Cell Membranes Expressing Human Vasopressin V2 Subtype Receptors
Chinese Hamster Ovary (CHO) cells stably transfected with the human V2 subtype receptors were obtained from M. Thibonnier, Case Western Reserve University School of Medicine, Cleveland, Ohio.
A. Passaging and Amplification of Cells:
CHO cells transfected with the human vasopressin V2 subtype receptors obtained from M. Thibonnier (pZeoSV vector) are allowed to grow to confluency (approx. >90%) in T-150 flasks under sterile conditions, in a cell culture medium of F-12 Nutrient Mixture (HAM) with L-glutamine (Gibco Cat. # 11765-054) containing 15 mM HEPES (Gibco Cat. # 15630-080), 1% antibiotic/antimycotic (add 5 mL 100×, Gibco Cat. # 15240-062 per 500 mL F-12), 250 μg/mL Zeocin (add 1.25 mL of 100 mg/mL Invitrogen R-250-01 per 500 mL F-12) and 10% Fetal Bovine Serum (Qualified, heat inactivated, Gibco Cat. # 16140-063). The medium is removed by aspiration and the cells washed with 10 mL of Hank's Balanced Salt solution (Gibco Cat. # 14175-095). The salt solution is removed by aspiration and the cells trypsinized with 5 mL of trypsin-EDTA (0.05% trypsin, 0.53 mM EDTA-4Na, Gibco Cat. # 25300-070) for 1 min. The trypsin is removed by aspiration and the cells dislodged by tapping. Cell Culture medium (e.g. 30 mL for 1:30 split) is immediately added and mixed well to inactivate trypsin. 1 mL of detached cells is added to new culture flasks containing fresh Cell Culture medium (e.g. into 25 mL per T-150 flask), and mixed gently. The cells are incubated at 37° C. in 5% CO2. The medium is changed at 3 to 4 day interval (or as appropriate). The cells grow to confluency (approx. >75%–95%) within 7–8 days. All steps are done under sterile conditions. B. Membrane Preparation: The cells are washed twice gently with Hank's Balanced Salt solution (e.g. use 10 mL per T-150 flask). The excess solution is removed and the cells bathed for 15–30 min. in an enzyme-free Cell Dissociation Buffer (e.g. use 8 mL Hank's Based, Gibco Cat. # 13150-016 per T-150 flask) until cells are loosened. The contents are transferred to centrifuge tubes (50 mL) kept in an ice bath. All subsequent steps are done at 4° C. The tubes are centrifuged at 300× g for 15 min (1380 rpm on SORVAL, Model RT6000D, using the rotor for 50 mL tubes). The supernatant is discarded and the cells suspended in homogeneizing buffer(10 mM Tris-HCl containing 0.25 M sucrose and 1 mM EDTA, pH 7.4) ensuring that the volume of the buffer is about ten times the volume of the cell pellet. The cells are pooled into a centrifuge tube (50 mL) and homogenized with a Polytron at setting 6 for 10 sec. The homogenate is transferred into a Potter-Elvjehm homogeneizer and homogenized with 3 strokes. The homogenate is centrifuged at 1500×g for 60 min at 4° C. (3100 rpm using SORVAL, model RT6000D, using the rotor for 50 mL tubes). The pellet is discarded. The supernatant is centrifuged at 100,000×g for 60 min. at 4° C. (Beckman L8-80M ultracentrifuge; spin at 37,500 rpm with rotor type 70 Ti for 50 mL tubes; 38,000 rpm with type 80Ti for 15 mL tubes; or 35,800 rpm with rotor type 45Ti). The supernantant is discarded and the pellet suspended in 3 to 4 mL of Tris buffer (50 mM TRIS-HCl, pH 7.4). The protein content is estimated by the Bradford or Lowry method. The volume of the membrane suspension is adjusted with the membrane buffer (50 mM Tris-HCl containing 0.1% BSA and 0.1 mM PMSF) to give 3.0 mg/mL (or as appropriate) of protein. The membranes are aliquoted and stored at −70° C. C. Radioligand Binding Assay: In wells of a 96-well format microtiter plate, is added 90, 110 or 130 μL (to make up a final volume of 200 μL) of assay buffer containing 50 mM of Tris-HCl (pH 7.4), […], 1 mg % aprotinin, 1 mg % leupeptin, 2 mg % 1,10-phenanthroline, 10 mg % trypsin inhibitor, and 0.1 mM PMSF. The inhibitors are added on the day of the experiment. […]

The term inhibition denotes the drop in the measured response relative to a control, in per cent. Usually IC50 stands for the concentration that gives 50% inhibition.

Chain of human V2 vasopressin receptor subtype (P30518 whole entry): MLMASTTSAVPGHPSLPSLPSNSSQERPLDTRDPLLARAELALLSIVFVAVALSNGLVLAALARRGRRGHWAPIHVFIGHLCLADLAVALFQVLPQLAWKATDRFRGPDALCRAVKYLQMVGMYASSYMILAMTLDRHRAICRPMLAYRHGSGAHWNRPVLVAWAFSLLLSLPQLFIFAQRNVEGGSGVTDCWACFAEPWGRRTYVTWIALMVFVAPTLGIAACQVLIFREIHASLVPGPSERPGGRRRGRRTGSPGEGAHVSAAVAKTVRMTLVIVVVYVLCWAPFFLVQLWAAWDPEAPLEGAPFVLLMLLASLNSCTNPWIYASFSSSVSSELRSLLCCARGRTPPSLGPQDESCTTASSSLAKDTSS

Take `COC(=O)c1ccc2c(c1)N(C(=O)c1ccc(C3CCCCC3)cc1)Cc1ccc(C(=O)N3CCN(C)CC3)n1C2.Cl` [Example 1, Methyl 10-(4-cyclohexylbenzoyl)-3-[(4-methyl-1-piperazinyl)carbonyl]-10,11-dihydro-5H-pyrrolo[2,1-c][1,4]benzodiazepine-8-carboxylate hydrochloride salt]: the inhibition at 0.1 µM came out at 3%.

For the molecule `CN1CCN(C(=O)c2ccc3n2Cc2ccc(C(=O)O)cc2N(C(=O)c2ccc(C4CCCCC4)cc2)C3)CC1` [Example 3, 10-(4-Cyclohexyl-benzoyl)-3-[(4-methyl-1-piperazinyl)carbonyl]-10,11-dihydro-5H-pyrrolo[2,1-c][1,4]benzodiazepine-8-carboxylic acid], the inhibition at 0.1 µM was -4%. Same read-out and setting: in the case of `CC(C)(C)c1ccc(C(=O)c2ccc3n2Cc2ccccc2N(C(=O)c2ccc(C4CCCCC4)cc2)C3)cc1` [Example 5, [4-(tert-Butyl)phenyl][10-(4-cyclohexyl-benzoyl)-10,11-dihydro-5H-pyrrolo[2,1-c][1,4]benzodiazepin-3-yl]methanone] it was 2%. Take `CC(=O)c1ccc2n1Cc1ccccc1N(C(=O)c1ccc(C3CCCCC3)cc1)C2` [Example 6, 1-[10-(4-Cyclohexyl-benzoyl)-10,11-dihydro-5H-pyrrolo[2,1-c][1,4]benzodiazepin-3-yl]-ethanone]: the IC50 was more than 1000 nM. Take `O=C(c1ccc(C2CCCCC2)cc1)N1Cc2ccc(C(=O)C(Cl)(Cl)Cl)n2Cc2ccccc21` [Example 7, 2,2,2-Trichloro-1-[10-(4-cyclohexyl-benzoyl)-10,11-dihydro-5H-pyrrolo[2,1-c][1,4]benzodiazepin-3-yl]-1-ethanone]: the inhibition at 0.1 µM amounted to 10%. Turning to `NNC(=O)c1ccc2n1Cc1ccccc1N(C(=O)c1ccc(C3CCCCC3)cc1)C2` [Example 8, 10-(4-Cyclohexy-benzoyl)-10,11-dihydro-5H-pyrrolo[2,1-c][1,4]benzodiazepine-3-carboxylic acid hydrazide], the IC50 was more than 1000 nM.

As to `CC(=NNC(=O)c1ccc2n1Cc1ccccc1N(C(=O)c1ccc(C3CCCCC3)cc1)C2)N(C)C` [Example 9, N′-{[10-(4-Cyclohexyl-benzoyl)-10,11-dihydro-5H-pyrrolo[2,1-c][1,4]benzodiazepin-3-yl]carbonyl}-N,N-dimethylethanehydrazonamide], the IC50 was more than 1000 nM. Turning to `CN(C)C=NNC(=O)c1ccc2n1Cc1ccccc1N(C(=O)c1ccc(C3CCCCC3)cc1)C2` [Example 10, N′-{[10-(4-Cyclohexyl-benzoyl)-10,11-dihydro-5H-pyrrolo[2,1-c][1.4]benzodiazepin-3-yl]carbonyl}-N,N-dimethylhydrazonoformamide], the IC50 came to 1160 nM. With `CC(=O)NNC(=O)c1ccc2n1Cc1ccccc1N(C(=O)c1ccc(C3CCCCC3)cc1)C2` [Example 11, N′-Acetyl-10-(4-cyclohexyl-benzoyl)-10,11-dihydro-5H-pyrrolo[2,1-c][1,4]benzodiazepine-3-carbonyl-hydrazide], the IC50 is more than 1000 nM.

On to `Cc1ccccc1C(=O)NNC(=O)c1ccc2n1Cc1ccccc1N(C(=O)c1ccc(C3CCCCC3)cc1)C2` [Example 12, 10-(4-Cyclohexyl-benzoyl)-N′-(2-methylbenzoyl)-10,11-dihydro-5H-pyrrolo[2,1-c][1,4]benzodiazepine-3-carbonyl-hydrazide], for which the “V2 % inhibition at 100 nM” value is recorded as 7%. Same read-out and setting: in the case of `O=C(NNC(=O)C1CC1)c1ccc2n1Cc1ccccc1N(C(=O)c1ccc(C3CCCCC3)cc1)C2` [Example 13, 10-(4-Cyclohexyl-benzoyl)-N′-(cyclopropylcarbonyl)-10,11-dihydro-5H-pyrrolo[2,1-c][1,4]benzodiazepine-3-carbonyl-hydrazide] it was 18%; in that of `Cc1cccc(C(=O)NNC(=O)c2ccc3n2Cc2ccccc2N(C(=O)c2ccc(C4CCCCC4)cc2)C3)c1` [Example 14, 10-(4-Cyclohexyl-benzoyl)-N′-(3-methyl-benzoyl)-10,11-dihydro-5H-pyrrolo[2,1-c][1,4]benzodiazepine-3-carbonyl-hydrazide], 4%. Consider `O=C(NNC(=O)c1ccc2n1Cc1ccccc1N(C(=O)c1ccc(C3CCCCC3)cc1)C2)Nc1ccccc1` [Example 15, 2-{[10-(4-Cyclohexyl-benzoyl)-10,11-dihydro-5H-pyrrolo[2,1-c][1,4]benzodiazepin-3-yl]carbonyl}-N-phenyl-1-hydrazinecarboxamide], for which the inhibition at 0.1 µM is 11%. With `NC(=O)c1ccc2n1Cc1ccccc1N(C(=O)c1ccc(C3CCCCC3)cc1)C2` [Example 16, 10-(4-Cyclohexyl-benzoyl)-10,11-dihydro-5H-pyrrolo[2,1-c][1,4]benzodiazepin-3-carboxamide], the IC50 was more than 1000 nM. On the same count and under the same terms, in the case of `CN(C)/C=N/C(=O)c1ccc2n1Cc1ccccc1N(C(=O)c1ccc(C3CCCCC3)cc1)C2` [Example 17] it was 477 nM; in that of `C/C(=N\C(=O)c1ccc2n1Cc1ccccc1N(C(=O)c1ccc(C3CCCCC3)cc1)C2)N(C)C` [Example 18], 294 nM; in that of `CN(C)NC(=O)c1ccc2n1Cc1ccccc1N(C(=O)c1ccc(C3CCCCC3)cc1)C2` [Example 19, 10-(4-Cyclohexyl-benzoyl)-N′-N′-dimethyl-10,11-dihydro-5H-pyrrolo[2,1-c][1,4]benzodiazepine-3-carbohydrazide], more than 1000 nM.

`CN(C)/C=C/C(=O)c1ccc2n1Cc1ccccc1N(C(=O)c1ccc(C3CCCCC3)cc1)C2` [Example 20, (E)-1-[10-(4-Cyclohexyl-benzoyl)-10,11-dihydro-5H-pyrrolo[2,1-c][1,4]benzodiazepin-3-yl]-3-(dimethylamino)-2-propen-1-one]: the inhibition at 0.1 µM was 11%. On the same count and under the same terms, with `CN(N)C(=O)c1ccc2n1Cc1ccccc1N(C(=O)c1ccc(C3CCCCC3)cc1)C2` [Example 21, 10-(4-Cyclohexyl-benzoyl)-N-methyl-10,11-dihydro-5H-pyrrolo[2,1-c][1,4]benzodiazepine-3-carboxylic acid hydrazide] the figure was 13%. On to `O=C(O)c1ccc2n1Cc1ccccc1N(C(=O)c1ccc(C3CCCCC3)cc1)C2` [Example 22, 10-(4-Cyclohexyl-benzoyl)-10,11-dihydro-5H-pyrrolo[2,1 c][1,4]benzodiazepine-3-carboxylic acid], for which the “V2 % inhibition at 100 nM” value worked out at 19%.

As to `O=C(c1ccc2n1Cc1ccccc1N(C(=O)c1ccc(C3CCCCC3)cc1)C2)N1CCN(c2ncccn2)CC1` [Example 23], the IC50 was more than 1000 nM. On the same count and under the same terms, in the case of `CN1CCN(C(=O)c2ccc3n2Cc2ccccc2N(C(=O)c2ccc(C4CCCCC4)cc2)C3)CC1` [Example 24, [10-(4-Cyclohexyl-benzoyl)-10,11-dihydro-5H-pyrrolo[2,1-c][1,4]benzodiazepin-3-yl](4-methyl-1-piperazinyl)-methanone] it was more than 1000 nM. In the case of `O=C(c1ccc2n1Cc1ccccc1N(C(=O)c1ccc(C3CCCCC3)cc1)C2)N1CCC(N2CCCC2)CC1` [Example 25, [10-(4-Cyclohexyl-benzoyl)-10,11-dihydro-5H-pyrrolo[2,1-c][1,4]benzodiazepin-3-yl][4-(1-pyrrolidinyl)-1-piperidinyl]methanone], the IC50 was more than 1000 nM.
